Test results reported in patent publication US7008953B2, “3, 5 Disubstituted indazole compounds, pharmaceutical compositions, and methods for mediating or inhibiting cell proliferation” (Agouron Pharmaceuticals, Inc., priority 2003, dated 2006).

What was measured:
Format in all cases: biochemical
CDK2/Cyclin A = biological target: T1, CDK2/Cyclin A (Homo sapiens, UniProt P24941); experiment: Inhibition of CDK2/Cyclin A retinoblastoma kinase activity (apparent Ki); settings: Rb fragment substrate, 25 μM ATP
T1 construct: made in house; host or cells: CDK2: insect cells (baculovirus); cyclin A: E. coli
Method: Cyclin-dependent kinase activity was measured by quantifying the enzyme-catalyzed, time-dependent incorporation of radioactive phosphate from [^32P]ATP or [^33P]ATP into a protein substrate. Unless noted otherwise, assays were performed in 96-well plates in a total volume of 50 μL, in the presence of 10 mM HEPES (N-[2-hydroxyethyl]piperazine-N′-[2-ethanesulfonic acid]) (pH 7.4), 10 mM MgCl2, 25 μM adenosine triphosphate (ATP), 1 mg/mL ovalbumin, 5 μg/mL leupeptin, 1 mM dithiothreitol, 10 mM beta-glycerophosphate, 0.1 mM sodium vanadate, 1 mM sodium fluoride, 2.5 mM ethylene glycol-bis(β-aminoethyl ethKer)-N,N,N′N′-tetraacetic acid (EGTA), 2% (v/v) dimethylsulfoxide, and 0.03–0.4 μCi [^32/33P]ATP per reaction. Reactions were initiated with enzyme, incubated at 30° C., and terminated after 20 minutes by the addition of ethylenediaminetetraacetic acid (EDTA) to 250 mM. The phosphorylated substrate was then captured on a nitrocellulose or phosphocellulose membrane using a 96-well filtration manifold, and unincorporated radioactivity was removed by repeated washing with 0.85% phosphoric acid. Radioactivity was quantified by exposing the dried membranes to a phosphorimager.
Apparent Ki values were measured by assaying enzyme activity in the presence of different inhibitor compound concentrations and subtracting the background radioactivity measured in the absence of enzyme. Inhibition data were fit to an equation for competitive inhibition using Kaleidagraph (Synergy Software), or were fit to an equation for competitive tight-binding inhibition using the software KineTic (BioKin, Ltd.).
CDK2 was purified using published methodology (Rosenblatt et al., “Purification and Crystallization of Human Cyclin-dependent Kinase 2,” J. Mol. Biol., vol. 230, 1993, pp. 1317–1319) from insect cells that had been infected with a baculovirus expression vector. […] A complex of CDK2 and proteolyzed cyclin A was prepared and purified by gel filtration. The substrate for this assay was the same Rb substrate fragment used for the CDK4 assays, and the methodology of the CDK2/cyclin A and the CDK4/cyclin D3 assays was essentially the same, except that CDK2 was present at 150 nM or 5 nM. Ki values were measured as described above.

[1] = biological target: dual serine/threonine/tyrosine kinase (DYRK1A) (Homo sapiens, UniProt Q13627); experiment: Panel of protein kinases: DYRK1A; settings: method of Davies et al.
Method: (§1) The compounds of the present invention were screened against a large panel of protein kinase to determine inhibition activity for CDK as against a variety of protein kinases. The assay was conducted using methods and materials described by Davies, S et al. Specificity and Mechanism of Action of Some Commonly Used Protein Kinase Inhibitors, Biochem J. 351, 95–105 (2000), the contents of which are herein incorporated by reference. The compounds were screened against a panel of protein kinases which include AMP-activiated protein kinase (AMPK), checkpoint kinase (CHK1), casein kinases 1 and 2 (CK1 and CK2), cytoplasmic tyrosine kinase (CSK), dual serine/threonine/tyrosine kinase (DYRK1A), glycogen synthase kinase 3 (GSK3B), c-Jun N-terminal kinase (JNK), lymphocyte kinase (LCK), mitogen-activated protein kinases 2, K-1a, K2 (MAPK2, MAPKAP-K1a, and MAPKAP-K2), MAPK kinase (MKK1, also called MEK), mitogen and stress-activated protein kinase 1 (MSK1), never-in-mitosis kinase 6 (NEK6), p70 ribosomal protein S6 kinase (P70s6K1), 3-phosphoinositide-dependent protein kinase 1 (PDK1), phosphorylase kinase (PHK), protein kinase A (PKA), protein kinase B (PKB, also called Akt), protein kinase C (PKCa), p38-regulated/activated kinase (PRAK), Rho-dependent protein kinase (ROCK-II), stress-activated protein kinase 2a, 2b, 3 and 4 (SAPK-2A or p38, SAPK-2b or p38β2, SAPK3 or p38γ, SAPK4 or p38δ, respectively), and serum- and glucocorticoid-induced kinase (SGK). Compound activity was grouped into categories of weak (<50%), moderate (50–75%) and strong inhibition (>75%).

[2] = biological target: phosphorylase kinase (PHK) (Oryctolagus cuniculus, UniProt P00518); experiment: Panel of protein kinases: PHK; settings: method of Davies et al.
Method: as §1

[3] = biological target: stress-activated protein kinase 2a (SAPK-2A or p38) (Homo sapiens, UniProt Q16539); experiment: Panel of protein kinases: SAPK-2A; settings: method of Davies et al.
Method: as §1

[4] = biological target: T2, stress-activated protein kinase 3 (SAPK3 or p38γ) (Homo sapiens, UniProt P53778); experiment: Panel of protein kinases: SAPK3; settings: method of Davies et al.
T2 sequence (P53778 1-367): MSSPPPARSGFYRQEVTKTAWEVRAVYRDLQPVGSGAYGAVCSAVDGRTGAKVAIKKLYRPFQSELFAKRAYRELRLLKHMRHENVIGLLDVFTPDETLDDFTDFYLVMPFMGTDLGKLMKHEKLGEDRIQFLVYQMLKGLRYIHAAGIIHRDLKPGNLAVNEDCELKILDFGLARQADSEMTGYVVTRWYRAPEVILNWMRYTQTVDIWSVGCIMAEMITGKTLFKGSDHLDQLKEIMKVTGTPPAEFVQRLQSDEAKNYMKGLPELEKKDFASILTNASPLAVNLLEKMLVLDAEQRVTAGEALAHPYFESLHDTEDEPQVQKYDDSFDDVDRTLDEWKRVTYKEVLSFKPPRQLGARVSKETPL
Method: as §1

[5] = biological target: T3, serum- and glucocorticoid-induced kinase (SGK) (Homo sapiens, UniProt O00141, S422D); experiment: Panel of protein kinases: SGK; settings: method of Davies et al.
T3 sequence (O00141 61-431 S422D limits assumed): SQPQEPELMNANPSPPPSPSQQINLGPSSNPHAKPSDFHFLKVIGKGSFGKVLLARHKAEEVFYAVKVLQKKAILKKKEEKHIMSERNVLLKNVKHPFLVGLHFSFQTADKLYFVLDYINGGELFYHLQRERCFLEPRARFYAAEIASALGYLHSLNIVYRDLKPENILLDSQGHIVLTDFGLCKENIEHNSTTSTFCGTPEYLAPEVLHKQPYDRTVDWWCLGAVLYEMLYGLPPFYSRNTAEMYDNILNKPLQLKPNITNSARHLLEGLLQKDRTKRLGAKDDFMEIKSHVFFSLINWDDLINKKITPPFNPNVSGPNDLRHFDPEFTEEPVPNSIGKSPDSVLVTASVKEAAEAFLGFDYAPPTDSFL
Method: as §1

Sequence of stress-activated protein kinase 2a (SAPK-2A or p38) (Q16539 whole entry, species assumed): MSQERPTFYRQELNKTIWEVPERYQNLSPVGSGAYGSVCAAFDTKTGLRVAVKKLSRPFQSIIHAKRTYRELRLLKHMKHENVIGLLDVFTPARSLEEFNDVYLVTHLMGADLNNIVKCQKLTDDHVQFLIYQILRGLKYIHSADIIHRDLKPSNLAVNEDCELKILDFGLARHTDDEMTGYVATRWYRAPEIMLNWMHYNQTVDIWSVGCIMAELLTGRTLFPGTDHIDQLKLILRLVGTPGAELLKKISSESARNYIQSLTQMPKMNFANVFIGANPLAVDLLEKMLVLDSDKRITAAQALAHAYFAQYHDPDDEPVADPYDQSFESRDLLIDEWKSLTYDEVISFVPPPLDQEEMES

| SMILES | Ki (CDK2/Cyclin A) [nM] | Kinase DYRK1A inhibition [1] | Kinase PHK inhibition [2] | Kinase SAPK-2A inhibition [3] | Kinase SAPK3 inhibition [4] | Kinase SGK inhibition [5] |
| --- | --- | --- | --- | --- | --- | --- |
| CCNCc1cncc(-c2ccc3[nH]nc(-c4nc5ccccc5[nH]4)c3c2)c1C [A] | 0.52 | ++ (Strong inhibition >75%) | ++ (Strong inhibition >75%) | − (Weak inhibition <50%) | − (Weak inhibition <50%) | + (Moderate inhibition 50–75%) |
| CCNCc1cncc(-c2ccc3[nH]nc(-c4nc5c(C(=O)NC)cccc5[nH]4)c3c2)c1C [B] | 0.25 | ++ (Strong inhibition >75%) | + (Moderate inhibition 50–75%) | − (Weak inhibition <50%) | − (Weak inhibition <50%) | + (Moderate inhibition 50–75%) |
| CCNCc1cncc(-c2ccc3[nH]nc(-c4nc5c(SC)cccc5[nH]4)c3c2)c1C [C] | 0.8 | ++ (Strong inhibition >75%) | + (Moderate inhibition 50–75%) | − (Weak inhibition <50%) | − (Weak inhibition <50%) | − (Weak inhibition <50%) |
| CCNCc1cncc(-c2ccc3[nH]nc(-c4nc5c(NC(C)=O)cccc5[nH]4)c3c2)c1C [D] | 2.4 | ++ (Strong inhibition >75%) | − (Weak inhibition <50%) | − (Weak inhibition <50%) | − (Weak inhibition <50%) | − (Weak inhibition <50%) |
| CCNCc1cncc(-c2ccc3[nH]nc(-c4nc5c(F)cc(F)cc5[nH]4)c3c2)c1C [Example 1, {5-[3-(4,6-Difluoro-1H-benzoimidazol-2-yl)-1H-indazol-5-yl]-4-methyl-pyridin-3-ylmethyl}-ethyl-amine] | 0.78 | ++ (Strong inhibition >75%) | + (Moderate inhibition 50–75%) | − (Weak inhibition <50%) | − (Weak inhibition <50%) | − (Weak inhibition <50%) |
| CCNCc1cncc(-c2ccc3[nH]nc(-c4nc5cc(F)ccc5[nH]4)c3c2)c1C [Example 2, Ethyl-{5-[3-(5-fluoro-1H-benzoimidazol-2-yl)-1H-indazol-5-yl]-4-methyl-pyridin-3-ylmethyl}-amine] | 0.47 | ++ (Strong inhibition >75%) | ++ (Strong inhibition >75%) | − (Weak inhibition <50%) | − (Weak inhibition <50%) | − (Weak inhibition <50%) |
